Molecular target: PIK3CG (human) (UniProt P48736)
Assay: Assessment of PIK3CG Kinase Activity

Sequence of PIK3CG (human) (P48736 whole entry, looked up): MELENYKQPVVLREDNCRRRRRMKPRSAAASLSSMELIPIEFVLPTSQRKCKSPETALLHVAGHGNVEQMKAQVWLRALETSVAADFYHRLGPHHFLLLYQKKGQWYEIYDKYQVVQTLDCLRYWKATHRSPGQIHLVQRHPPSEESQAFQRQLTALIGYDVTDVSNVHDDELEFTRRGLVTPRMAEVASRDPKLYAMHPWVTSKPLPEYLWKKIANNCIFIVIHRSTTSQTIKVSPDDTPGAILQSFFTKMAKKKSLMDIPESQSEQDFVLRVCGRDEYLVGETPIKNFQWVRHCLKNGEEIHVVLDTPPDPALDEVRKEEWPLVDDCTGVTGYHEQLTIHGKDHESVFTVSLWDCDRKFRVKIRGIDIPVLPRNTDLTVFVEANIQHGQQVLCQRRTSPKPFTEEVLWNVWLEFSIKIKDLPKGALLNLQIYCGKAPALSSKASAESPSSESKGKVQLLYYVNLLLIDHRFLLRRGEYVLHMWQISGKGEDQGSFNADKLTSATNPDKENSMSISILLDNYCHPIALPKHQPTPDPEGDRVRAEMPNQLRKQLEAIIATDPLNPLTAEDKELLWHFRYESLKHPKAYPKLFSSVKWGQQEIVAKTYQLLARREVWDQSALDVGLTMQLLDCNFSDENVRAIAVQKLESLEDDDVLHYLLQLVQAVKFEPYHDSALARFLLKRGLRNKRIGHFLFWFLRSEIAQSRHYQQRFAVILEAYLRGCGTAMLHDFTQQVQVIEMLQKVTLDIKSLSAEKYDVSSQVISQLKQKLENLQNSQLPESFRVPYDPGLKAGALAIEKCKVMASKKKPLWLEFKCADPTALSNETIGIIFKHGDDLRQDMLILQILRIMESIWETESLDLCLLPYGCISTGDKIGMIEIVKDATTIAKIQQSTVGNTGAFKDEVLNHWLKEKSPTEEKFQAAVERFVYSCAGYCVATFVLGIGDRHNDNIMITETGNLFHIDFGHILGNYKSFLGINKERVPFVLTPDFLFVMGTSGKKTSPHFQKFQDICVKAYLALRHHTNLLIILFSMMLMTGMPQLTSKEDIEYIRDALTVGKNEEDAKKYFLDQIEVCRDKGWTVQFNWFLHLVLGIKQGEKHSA

| Structure (SMILES) | IC50 |
| --- | --- |
| CC(C)N1CC(=O)N(C)c2cnc(Nc3cc(NS(=O)(=O)CC4CCCCC4)cc(S(C)(=O)=O)c3)nc21 | < 800 nM |
| Cc1[nH]c2ccccc2c1CC(=O)Nc1cc(Nc2ncc3c(n2)N(C(C)C)CC(=O)N3C)cc(S(C)(=O)=O)c1 | < 800 nM |
| CC(C)N1CC(=O)N(C)c2cnc(Nc3cc(Br)cc(S(C)(=O)=O)c3)nc21 | < 800 nM |
| CNC(=O)c1cc(Nc2ncc3c(n2)N(C(C)C)CC(=O)N3C)cc(C(F)(F)F)c1 | < 800 nM |
| CC(C)N1CC(=O)N(C)c2cnc(Nc3cc(NS(C)(=O)=O)cc(C(F)(F)F)c3)nc21 | < 800 nM |
| CC(C)N1CC(=O)N(C)c2cnc(Nc3cc(Cl)cc(S(C)(=O)=O)c3)nc21 | < 800 nM |
| CC(C)N1CC(=O)N(C)c2cnc(Nc3cccc(S(=O)(=O)CCN4CCN(C)CC4)c3)nc21 | < 800 nM |
| CC(C)N1CC(=O)N(C)c2cnc(Nc3cc(NS(=O)(=O)c4ccc(F)cc4)cc(S(C)(=O)=O)c3)nc21 | < 800 nM |
| CC(C)N1CC(=O)N(C)c2cnc(Nc3cc(C(=O)N(C)Cc4ccncc4)cc(S(C)(=O)=O)c3)nc21 | < 800 nM |
| CC(C)N1CC(=O)N(C)c2cnc(Nc3cc(NC(=O)[C@@H]4CCCN(C5CCCC5)C4)cc(S(C)(=O)=O)c3)nc21 | < 800 nM |
| CC(C)N1CC(=O)N(C)c2cnc(Nc3cc(N(C)C(=O)Cc4cccs4)cc(S(C)(=O)=O)c3)nc21 | < 800 nM |
| CC(C)N1CC(=O)N(C)c2cnc(Nc3cc(N(C)C(=O)Cc4ccsc4)cc(S(C)(=O)=O)c3)nc21 | < 800 nM |
| CC(C)N1CC(=O)N(C)c2cnc(Nc3cc(N(C)C(=O)Cc4cccc(Cl)c4)cc(S(C)(=O)=O)c3)nc21 | < 800 nM |
| CCC(C(=O)Nc1cc(Nc2ncc3c(n2)N(C(C)C)CC(=O)N3C)cc(S(C)(=O)=O)c1)c1ccccc1 (stereo unspecified) | < 800 nM |
| CC(C)N1CC(=O)N(C)c2cnc(Nc3cc(NS(C)(=O)=O)cc(C(=O)NCc4ccncc4)c3)nc21 | < 800 nM |
| CC(C)N1CC(=O)N(C)c2cnc(Nc3cc(N4CCNC4=O)cc(S(C)(=O)=O)c3)nc21 | < 800 nM |
| CC(C)N1CC(=O)N(C)c2cnc(Nc3cc(S(C)(=O)=O)cc(S(C)(=O)=O)c3)nc21 | < 800 nM |

| Structure (SMILES) | IC50 |
| --- | --- |
| CC(C)N1CC(=O)N(C)c2cnc(Nc3cc(C(=O)NCCCN(C)C)cc(S(C)(=O)=O)c3)nc21 | < 800 nM |
| CC(C)N1CC(=O)N(C)c2cnc(Nc3cc(NS(C)(=O)=O)cc(C(=O)NCCN4CCNC4=O)c3)nc21 | < 800 nM |
| CC(C)N1CC(=O)N(C)c2cnc(Nc3cc(NC(=O)O[C@H]4CCN(C5CCCC5)C4)cc(S(C)(=O)=O)c3)nc21 | < 800 nM |
| CC(C)N1CC(=O)N(C)c2cnc(Nc3cc(NS(C)(=O)=O)cc(C(=O)NCCN(C)C)c3)nc21 | < 800 nM |
| CC(C)N1CC(=O)N(C)c2cnc(Nc3cc(C(=O)NCCC4CCCN4C)cc(C(F)(F)F)c3)nc21 (stereo unspecified) | < 800 nM |
| CC(C)N1CC(=O)N(C)c2cnc(Nc3cc(NC(=O)[C@@H](N)c4ccccc4)cc(S(C)(=O)=O)c3)nc21 | < 800 nM |
| CC(C)N1CC(=O)N(C)c2cnc(Nc3cccc(S(=O)(=O)CCN4CCOCC4)c3)nc21 | < 800 nM |
| COc1cc(Nc2ncc3c(n2)N(C(C)C)CC(=O)N3C)cc(S(C)(=O)=O)c1 | < 800 nM |
| CCS(=O)(=O)c1cccc(Nc2ncc3c(n2)N(C2CCCCC2)CC(=O)N3C)c1 | < 800 nM |
| CC(C)N1CC(=O)N(C)c2cnc(Nc3cccc(S(=O)(=O)CCN(C)C)c3)nc21 | < 800 nM |
| CC(C)N1CC(=O)N(C)c2cnc(Nc3cc(NC(=O)[C@H]4CCCN(C5CCCC5)C4)cc(S(C)(=O)=O)c3)nc21 | < 800 nM |
| CC(C)N1CC(=O)N(C)c2cnc(Nc3cc(C(=O)NC4CCN(C)C4)cc(S(C)(=O)=O)c3)nc21 (stereo unspecified) | < 800 nM |
| CC(C)N1CC(=O)N(C)c2cnc(Nc3cc(C(N)=O)cc(C(F)(F)F)c3)nc21 | < 800 nM |
| CC(C)N1CC(=O)N(C)c2cnc(Nc3cc(NC(=O)N[C@@H]4CCN(C5CCCC5)C4)cc(NS(C)(=O)=O)c3)nc21 | < 800 nM |
| CN1C(=O)CN(c2ccccc2)c2nc(Nc3cccc(S(=O)(=O)CCNC4CC4)c3)ncc21 | < 800 nM |
| CC(C)N1CC(=O)N(C)c2cnc(Nc3cc(NC(=O)[C@H](C)c4ccccc4)cc(S(C)(=O)=O)c3)nc21 | < 800 nM |
| CC(C)N1CC(=O)N(C)c2cnc(Nc3cc(NS(C)(=O)=O)cc(C(=O)NCCCCN(C)C)c3)nc21 | < 800 nM |

More lines, now with the values ahead:

| IC50 | Structure (SMILES) |
| --- | --- |
| < 800 nM | CC(C)N1CC(=O)N(C)c2cnc(Nc3cc(NC(=O)N[C@@H]4CCNC4)cc(S(C)(=O)=O)c3)nc21 |
| < 800 nM | CC(C)N1CC(=O)N(C)c2cnc(Nc3cc(NC(=O)NCCN4CCNC4=O)cc(S(C)(=O)=O)c3)nc21 |
| < 800 nM | CC(C)N1CC(=O)N(C)c2cnc(Nc3cc(NC(=O)NCCc4cccnc4)cc(S(C)(=O)=O)c3)nc21 |
| < 800 nM | CC(C)N1CC(=O)N(C)c2cnc(Nc3cc(NC(=O)NC[C@@H]4CCCN4)cc(S(C)(=O)=O)c3)nc21 |
| < 800 nM | CC(C)N1CC(=O)N(C)c2cnc(Nc3cc(NC(=O)NCc4ccccc4)cc(S(C)(=O)=O)c3)nc21 |
| < 800 nM | CC(C)N1CC(=O)N(C)c2cnc(Nc3cc(NC(=O)N[C@H]4CCN(Cc5ccccc5)C4)cc(S(C)(=O)=O)c3)nc21 |
| < 800 nM | CCC(C)Nc1cc(Nc2ncc3c(n2)N(C(C)C)CC(=O)N3C)cc(S(C)(=O)=O)c1 (stereo unspecified) |
| < 800 nM | CC(C)N1CC(=O)N(C)c2cnc(Nc3cc(NC(=O)C4CCCCN4)cc(S(C)(=O)=O)c3)nc21 (stereo unspecified) |
| < 800 nM | CC(C)N1CC(=O)N(C)c2cnc(Nc3cc(NC(=O)NCc4ccncc4)cc(S(C)(=O)=O)c3)nc21 |
| < 800 nM | CC(C)N1CC(=O)N(C)c2cnc(Nc3cc(NC(=O)[C@H](C)C4CCCCC4)cc(S(C)(=O)=O)c3)nc21 |
| < 800 nM | CC(C)N1CC(=O)N(C)c2cnc(Nc3cc(NC(=O)N[C@H]4CCN(C5CCCC5)C4)cc(S(C)(=O)=O)c3)nc21 |
| < 800 nM | COc1ccc2[nH]c(CC(=O)Nc3cc(Nc4ncc5c(n4)N(C(C)C)CC(=O)N5C)cc(S(C)(=O)=O)c3)cc2c1 |
| < 800 nM | CC(C)N1CC(=O)N(C)c2cnc(Nc3cc(NC(=O)Cc4cccc(Cl)c4)cc(S(C)(=O)=O)c3)nc21 |
| < 800 nM | CC(C)N1CC(=O)N(C)c2cnc(Nc3cc(NC(=O)Cc4c[nH]c5ccccc45)cc(S(C)(=O)=O)c3)nc21 |
| < 800 nM | CC(C)N1CC(=O)N(C)c2cnc(Nc3cc(NC(=O)N(C)Cc4ccncc4)cc(S(C)(=O)=O)c3)nc21 |
| < 800 nM | CC(C)N1CC(=O)N(C)c2cnc(Nc3cc(NC(=O)Cc4noc5ccccc45)cc(S(C)(=O)=O)c3)nc21 |
| < 800 nM | CC(C)N1CC(=O)N(C)c2cnc(Nc3cc(NC(=O)NC[C@H]4CCCN4)cc(S(C)(=O)=O)c3)nc21 |
| < 800 nM | CC(C)N1CC(=O)N(C)c2cnc(Nc3cc(NC(=O)NCCCN(C)C)cc(S(C)(=O)=O)c3)nc21 |
| < 800 nM | CC(C)N1CC(=O)N(C)c2cnc(Nc3cc(NC(=O)C[C@@H]4CCN(C5CCCC5)C4)cc(S(C)(=O)=O)c3)nc21 |
| < 800 nM | CC(C)N1CC(=O)N(C)c2cnc(Nc3cc(NC(=O)NCC4CC4)cc(S(C)(=O)=O)c3)nc21 |
| < 800 nM | CC(C)N1CC(=O)N(C)c2cnc(Nc3cc(NC4CCC(N)CC4)cc(S(C)(=O)=O)c3)nc21 (stereo unspecified) |
| < 800 nM | CC(C)N1CC(=O)N(C)c2cnc(Nc3cc(NC(N)=O)cc(S(C)(=O)=O)c3)nc21 |
| < 800 nM | CC(C)N1CC(=O)N(C)c2cnc(Nc3cc(NC(=O)c4ccsc4)cc(S(C)(=O)=O)c3)nc21 |
| < 800 nM | CC(C)N1CC(=O)N(C)c2cnc(Nc3cc(NC(=O)C4CNCCO4)cc(S(C)(=O)=O)c3)nc21 (stereo unspecified) |

| IC50 | Structure (SMILES) |
| --- | --- |
| < 800 nM | CCN1CCCC1CNC(=O)c1cc(Nc2ncc3c(n2)N(C(C)C)CC(=O)N3C)cc(S(C)(=O)=O)c1 (stereo unspecified) |
| < 800 nM | CNC(=O)Nc1cc(Nc2ncc3c(n2)N(C(C)C)CC(=O)N3C)cc(S(C)(=O)=O)c1 |
| < 800 nM | Cc1cccc(CC(=O)Nc2cc(Nc3ncc4c(n3)N(C(C)C)CC(=O)N4C)cc(S(C)(=O)=O)c2)c1 |
| < 800 nM | CC(C)N1CC(=O)N(C)c2cnc(Nc3cc(NC(=O)[C@@H]4CCCN4)cc(S(C)(=O)=O)c3)nc21 |
| < 800 nM | CC(C)N1CC(=O)N(C)c2cnc(Nc3cc(NC(=O)c4cccc(C#N)c4)cc(S(C)(=O)=O)c3)nc21 |
| < 800 nM | CC(C)N1CC(=O)N(C)c2cnc(Nc3cc(NC(=O)NC4CCN(C)CC4)cc(S(C)(=O)=O)c3)nc21 |
| < 800 nM | CC(C)N1CC(=O)N(C)c2cnc(Nc3cc(NC(=O)c4csc5ccccc45)cc(S(C)(=O)=O)c3)nc21 |
| < 800 nM | CC(C)N1CC(=O)N(C)c2cnc(Nc3cc(NC(=O)NC[C@H]4CCNC4)cc(S(C)(=O)=O)c3)nc21 |
| < 800 nM | CC(C)N1CC(=O)N(C)c2cnc(Nc3cc(NC(=O)C4CN(C5CCCC5)CCO4)cc(S(C)(=O)=O)c3)nc21 (stereo unspecified) |
| < 800 nM | CC(C)N1CC(=O)N(C)c2cnc(Nc3cc(NC(=O)[C@@H]4CCN(C5CCCC5)C4)cc(S(C)(=O)=O)c3)nc21 |
| < 800 nM | CC(C)N1CC(=O)N(C)c2cnc(Nc3cc(NC(=O)NCc4cc(C5CC5)[nH]n4)cc(S(C)(=O)=O)c3)nc21 |
| < 800 nM | CC(C)N1CC(=O)N(C)c2cnc(Nc3cc(NC(=O)Cc4cccc(F)c4)cc(S(C)(=O)=O)c3)nc21 |
| < 800 nM | CC(C)N1CC(=O)N(C)c2cnc(Nc3cc(NC(=O)[C@@H]4CCCN4C4CCCC4)cc(S(C)(=O)=O)c3)nc21 |
| < 800 nM | CC(C)N1CC(=O)N(C)c2cnc(Nc3cc(NC(=O)NC[C@@H]4CCCO4)cc(S(C)(=O)=O)c3)nc21 |
| < 800 nM | CC(C)N1CC(=O)N(C)c2cnc(Nc3cc(NC(=O)N4CCOCC4)cc(S(C)(=O)=O)c3)nc21 |
| < 800 nM | CC(C)N1CC(=O)N(C)c2cnc(Nc3cc(NC(=O)NC[C@H]4CCCN4c4ccncc4)cc(S(C)(=O)=O)c3)nc21 |
| < 800 nM | CC(C)N1CC(=O)N(C)c2cnc(Nc3cc(NC(=O)CCC4CCCC4)cc(S(C)(=O)=O)c3)nc21 |
| < 800 nM | CC(C)N1CC(=O)N(C)c2cnc(Nc3cc(C(=O)NCCN4CCNC4=O)cc(S(C)(=O)=O)c3)nc21 |
| < 800 nM | Cc1cc(CNC(=O)Nc2cc(Nc3ncc4c(n3)N(C(C)C)CC(=O)N4C)cc(S(C)(=O)=O)c2)n[nH]1 |
| < 800 nM | CC(C)N1CC(=O)N(C)c2cnc(Nc3cc(C(=O)NCc4ccncc4)cc(S(C)(=O)=O)c3)nc21 |
| < 800 nM | CC(C)N1CC(=O)N(C)c2cnc(Nc3cc(NC(=O)C[C@@H]4CCNC4)cc(S(C)(=O)=O)c3)nc21 |
| < 800 nM | Cc1ccccc1CC(=O)Nc1cc(Nc2ncc3c(n2)N(C(C)C)CC(=O)N3C)cc(S(C)(=O)=O)c1 |
| < 800 nM | CC(C)N1CC(=O)N(C)c2cnc(Nc3cc(NC(=O)[C@H]4CCNC4)cc(S(C)(=O)=O)c3)nc21 |
